The conditions of data set [1]: in vivo.
The subject of data set [2] is Salmonella enteritidis PT4. Also on record: species or system Ross 308 male broilers. The conditions noted are these: in vivo.
On the set-up of data set [3]: species or system Ross 308 male broilers. The conditions noted are these: in vivo.

The values that follow come from US11000050B2 (priority 2015, dated 2021).

For `COc1cc(CNC(=O)CCCCC#Cc2ccccc2)ccc1O` [phenylcapsaicin], in data set [1], the “BWG with increasing dose level” value was “tendency towards a lower BWG”; the “body weight (BW) vs 0, 20 or 28 mg/kg” value was “significantly lower”; the “body weight gain (BWG) vs 0, 20 or 28 mg/kg” value is reported as “significantly lower”; the daily feed intake result is listed as “no effect”. For the same molecule, in data set [1], the “feed conversion ratio vs other Salmonella inoculated treatments” value is “higher” and the feed intake entry is “did not affect”. In data set [1] (36 mg/kg), the BWG result is “numerically the lowest” and the FCR result is “highest”. In addition, in data set [2], the “Salmonella counts (ranked) vs control group” value is “consistently lower”; the “Salmonella counts vs control chickens on a diet without phenylcapsaicin” value is recorded as “numerically had lower”; the “caecal colonization of Salmonella enteritidis PT4” value is recorded as “not affected”; the “differences in ranked numbers of Salmonella counts between control and 20 mg/kg treatment group” value is “highly significant”. Besides, in data set [2], the “effective dose (most probable range)” value is “up to 20 mg/kg”, the “next highest Salmonella value in caecal digesta” value is recorded as 4.0×10^6 CFU/g and the “two highest Salmonella values in caecal digesta (considered outliers)” value is given as 1.2×10^7 CFU/g. Further, the spleen weight entry in data set [3] is reported as “did not affect”.
